From patent publication US12553903B2, “Ivaltinostat combination therapy for treating pancreatic cancer” (CG Pharmaceuticals, Inc, priority 2023, dated 2026)

How the values were obtained:
[1] = tested on: pancreatic cancer; conditions: 1250 mg/m^2 twice daily for 2 weeks followed by a 1-week rest, first line; cited from earlier work
[2] = tested on: patients with advanced PDAC; assay: Phase II safety and adverse events (NCI-CTCAE v4.0); assay type: in vivo; conditions: for patients with dose reduced due to occurrence of AEs: three of 24 patients
Method: (§1) Tumor evaluation was performed at baseline, at the end of every two cycles, and/or at the end of the trial. For patients with measurable/non-measurable lesions, the Response Evaluation Criteria in Solid Tumors version 1.1 was used to evaluate target/non-target lesions. Serial measurements of carbohydrate antigen 19-9 (CA19-9) levels were performed at baseline and at the beginning of each treatment cycle. Patients were followed up for survival until death or study closure. Safety evaluation included vital signs, adverse events (AEs), adverse drug reactions, serious AEs, ECG, and clinic al laboratory tests, which were performed on days 1, 8 and 15 each cycle. AEs were graded according to the Common Terminology Criteria for Adverse Events, version 4.0, by the National Cancer Institute.
(§2) Full analysis set (FAS), per protocol (PP), and safety set analysis were defined according to the study protocol. FAS was defined as patients who had been evaluated for tumor response at least once after baseline. The PP analysis set included patients who received at least 70% and more of the intended study drug throughout the treatment period and without any significant violation of the protocol.

[3] = tested on: advanced pancreatic ductal adenocarcinoma (PDAC); assay: Phase II efficacy (ORR, DCR, OS, PFS); assay type: in vivo, human
Method: Both ivaltinostat and gemcitabine were administered via the same protocol as that in the phase I study, until development of unacceptable toxicity or disease progression. The entire treatment period was six cycles and could be extended to 12 cycles if the patients wanted to continue the regimen and the principal investigator agreed. Tumor assessment was evaluated at the end of every two cycles. Dose reduction or delay could be applied for intolerant patients according to the study protocol.
The primary endpoint was the ORR, which was defined as the rate (%) of patients who had best tumor assessment with complete response (CR) or partial response (PR) during the treatment period. Secondary endpoints included disease control rate (DCR), OS, and progression-free survival (PFS). DCR was defined as the rate (%) of patients who had best tumor assessment with CR, PR, or stable disease (SD) during the treatment period. OS was defined as the time from the date of the first enrollment to the date of death from any cause. Patients who were still alive or withdrew at the date of cut off were censored. PFS was defined as the time from the date of the first enrollment to the date of tumor progression or to the date of death from any cause. Patients were followed up for survival until death, withdrawal, or study closure.
as §1
as §2, with “the protocol. The safety cohort included all patients who had received the study drug at least once.” for “the protocol.”
Statistical Analysis: To identify MTD and DLT, the 3+3 dose escalation design was utilized and based on the method of determining MTD described above. In total, 10 patients were enrolled in the phase I study. The estimated sample size for the phase II study after the determination of MTD was calculated based on Simon's 2 stage design25 with a reference of published data of 8.6% ORR from a phase III randomized controlled trial of gemcitabine and erlotinib combination therapy. Assuming a difference in response probability of study drug=20%, α=0.05, and statistical power=90%, the estimated minimally required sample size for phase II study based on binomial distribution probability may be 9 for initial stage and increase to a total of 24 patients if more than one patient had responded to the study drug during the initial stage. The safety analysis included all patients who had received a single dose of the study drug. The main efficacy analysis was based on the FAS population, defined as a group of patients who had received at least single dose of study drug and had at least one tumor response evaluation after the baseline assessment.

[4] = clinical; conditions: human, in vivo, iv
Method: The MTD was defined as the dose at which one or zero patients developed a DLT among six-patient cohort. Based on the 3+3 dose escalation design, each cohort consists of three or six subjects. If one in three subjects had experienced DLT in a specific dose, the dose was administered to an additional three subjects and a total of six patients were checked for the occurrence of DLT. If two or more subjects in any cohort had experienced a DLT, the previous dose was considered MTD, and the dose escalation ended. […] Gemcitabine and erlotinib were administered as fixed doses; gemcitabine (1000 mg/m^2 intravenously), and erlotinib (100 mg/day orally), whereas ivaltinostat was administered according to the dose level for each cohort. Each cycle consisted of 28 days. Both ivaltinostat and gemcitabine were administered on days 1, 8, and 15 and erlotinib was administrate d daily for each 28-day cycle.

[5] = tested on: patients with unresectable pancreatic ductal adenocarcinoma (PDAC); assay type: in vivo
Text: The present disclosure discloses a phase I/II study that evaluated the safety and efficacy of the histone deacetylase (HDAC) inhibitor, ivaltinostat, in combination with gemcitabine and erlotinib for advanced pancreatic ductal adenocarcinoma (PDAC). Patients diagnosed with unresectable, histologically confirmed PDAC who had not undergone previous therapy were eligible. […] In phase II, patients received a six-cycle treatment with the MTD of ivaltinostat determined in phase I. The primary endpoint was the objective response rate (ORR). Secondary endpoints included overall survival (OS), disease control rate (DCR), and progression-free survival (PFS). The MTD of ivaltinostat for the phase II trial was determined to be 250 mg/m^2. In phase II, 24 patients were enrolled. The median OS and PFS were 8.6 (95% confidence interval [CI]: 5.3-11.2) and 5.3 months (95% CI: 3.7-5.8). Of the 16 patients evaluated for response, ORR and DCR were 25.0% and 93.8% with a median OS/PFS of 10.8 (95% CI: 8.3-16.7)/5.8 (95% CI: 4.6-6.7) months.
One study disclosed herein was a single-arm phase I/II clinical study. The study evaluated the efficacy and safety of ivaltinostat in combination with gemcitabine and erlotinib for advanced pancreatic cancer. […] The DLT was assessed according to the National Cancer Institute Common Toxicity Criteria version 4.0. […]

[6] = tested on: advanced PDAC; conditions: with gemcitabine; cited from earlier work
[7] = tested on: germline BRCA-mutated metastatic pancreatic cancer; conditions: cited from earlier work
[8] = tested on: PDAC after gemcitabine-based therapy; conditions: with bortezomib, seven patients enrolled; cited from earlier work
[9] = tested on: advanced PDAC; conditions: combined with gemcitabine; cited from earlier work
[10] = tested on: metastatic pancreatic cancer; conditions: first line; cited from earlier work
[11] = FAS analysis (n=16), with gemcitabine + erlotinib
[12] = Grade 3, treatment-related, phase II (n = 24)
[13] = Grade 4, treatment-related, phase II (n = 24)
[14] = Total grade 3 and 4, treatment-related, phase II (n = 24)

For CCCCCOC(=O)Nc1nc(=O)n([C@@H]2O[C@H](C)[C@@H](O)[C@H]2O)cc1F [Capecitabine, capecitabine], the efficacy and tolerability [1] is given as “effective and tolerable”.

In the case of C#Cc1cccc(Nc2ncnc3cc(OCCOC)c(OCCOC)cc23)c1 [erlotinib, reference compound], the “patients with dose reduced” value ([2]; phase II, 24 patients) was “no patient received a reduced dose”.

In the case of Nc1ccn([C@@H]2O[C@H](CO)[C@@H](O)C2(F)F)c(=O)n1 [gemcitabine, reference compound], the “patients with dose reduced due to occurrence of AEs” value ([2]; phase II) was 12.5%.

For CN(C)CCCNC(=O)/C(=C/CCCCC(=O)NO)COc1cccc2ccccc12.O=P(O)(O)O [ivaltinostat, (E)-N1-(3-(dimethylamino)propyl)-N8-hydroxy-2-((naphthalen-1-yloxy)methyl)oct-2-enediamide phosphate], the “PRs, % of patients” value ([3]; FAS analysis (n=16)) was 25%, the “PRs, number of patients” value ([3]; FAS analysis (n=16)) was 4 and the “SDs, % of patients” value ([3]; FAS analysis (n=16)) was 68.8%. For the same compound, the “SDs, number of patients” value ([3]; FAS analysis (n=16)) was 11, the “median OS” value ([3]; FAS analysis (n=16)) was 10.8 months and the “median PFS” value ([3]; FAS analysis (n=16)) was 5.8 months. It also gave a DCR [3, 11] of 93.8%, an ORR [3, 11] of 25.0% and a DCR ([3]; PP analysis (n=10)) of 100%. For the same compound, the ORR ([3]; PP analysis (n=10)) was 30%, the “PRs, % of patients” value ([3]; PP analysis (n=10)) was 30% and the “PRs, number of patients” value ([3]; PP analysis (n=10)) was 3. The “SDs, % of patients” value ([3]; PP analysis (n=10)) was 70%, the “SDs, number of patients” value ([3]; PP analysis (n=10)) was 7 and the “median OS” value ([3]; PP analysis (n=10)) was 11.7 months. For the same compound, the “median PFS” value ([3]; PP analysis (n=10)) was 5.9 months, the “median OS” value ([3]; all patients (n=23), ivaltinostat 250 mg/m^2 + gemcitabine 1000 mg/m^2 + erlotinib 100 mg/day) was 8.6 months and the “median PFS” value ([3]; all patients (n=23), ivaltinostat 250 mg/m^2 + gemcitabine + erlotinib) was 5.3 months. It also gave an AUC(0-t) ([4]; 187.5 mg/m2) of 28300 ng·h/mL, a Cmax ([4]; 187.5 mg/m2) of 9550 ng/mL and a half-life ([4]; 187.5 mg/m2) of 7.3 h. For the same compound, the AUC(0-t) ([4]; 250 mg/m2) was 35100 ng·h/mL, the Cmax ([4]; 250 mg/m2) was 8060 ng/mL and the half-life ([4]; 250 mg/m2) was 5.7 h. For the same compound, the AUC(0-t) ([4]; 312.5 mg/m2) was 65400 ng·h/mL, the Cmax ([4]; 312.5 mg/m2) was 12800 ng/mL and the half-life ([4]; 312.5 mg/m2) was 6.6 h. For the same compound, the “Anemia, % of patients” value [2, 12] was “(16.7) %”, the “Anemia, number of patients” value [2, 12] was 4 and the “Anorexia, % of patients” value [2, 12] was “(8.3) %”. For the same compound, the “Anorexia, number of patients” value [2, 12] was 2, the “Fatigue, % of patients” value [2, 12] was “(8.3) %” and the “Fatigue, number of patients” value [2, 12] was 2. The “Febrile neutropenia, % of patients” value [2, 12] was “(8.3) %”, the “Febrile neutropenia, number of patients” value [2, 12] was 2 and the “Neutropenia, % of patients” value [2, 12] was “(12.5) %”. The “Pneumonia, number of patients” value [2, 12] was 0, the “Thrombocytopenia, % of patients” value [2, 12] was “(16.7) %” and the “Thrombocytopenia, number of patients” value [2, 12] was 4. For the same compound, the “Neutropenia, number of patients” value ([2]; Grade 3, treatment-related, phase II (n = 24), with gemcitabine + erlotinib) was 3, the “Anemia, number of patients” value [2, 13] was 0 and the “Anorexia, number of patients” value [2, 13] was 0. For the same compound, the “Fatigue, number of patients” value [2, 13] was 0, the “Febrile neutropenia, number of patients” value [2, 13] was 0 and the “Neutropenia, % of patients” value [2, 13] was “(20.8) %”. For the same compound, the “Neutropenia, number of patients” value [2, 13] was 5, the “Pneumonia, % of patients” value [2, 13] was “(4.2) %” and the “Pneumonia, number of patients” value [2, 13] was 1. For the same compound, the “Thrombocytopenia, % of patients” value [2, 13] was “(12.5) %”, the “Thrombocytopenia, number of patients” value [2, 13] was 3 and the “Anorexia, % of patients” value [2, 14] was “(8.3) %”. For the same compound, the “Anorexia, number of patients” value [2, 14] was 2, the “Fatigue, % of patients” value [2, 14] was “(8.3) %” and the “Fatigue, number of patients” value [2, 14] was 2. The “Febrile neutropenia, % of patients” value [2, 14] was “(8.3) %”, the “Febrile neutropenia, number of patients” value [2, 14] was 2 and the “Pneumonia, % of patients” value [2, 14] was “(4.2) %”. The “Pneumonia, number of patients” value [2, 14] was 1, the ADR decreased appetite ([2]; phase II, 24 subjects) was 11 events and the “ADR decreased platelet count” value ([2]; phase II, 24 subjects) was 15 events. The ADR nausea ([2]; phase II, 24 subjects) was 10 events, the ADR rash ([2]; phase II, 24 subjects) was 11 events and the ADR vomiting ([2]; phase II, 24 subjects) was 10 events. For the same compound, the “ADRs with grade 3 or 4 severity” value ([2]; phase II, 24 subjects) was 26, the AEs reported ([2]; phase II, 24 subjects) was 218 and the “grade 5 (death) events” value ([2]; phase II, 24 subjects) was “no grade 5 (death) events”. The “adverse drug reactions (ADRs)” value ([2]; phase II, all 24 subjects) was 114, the “patients with dose reduced due to occurrence of AEs” value ([2]; phase II) was 12.5% and the “dose-limiting toxicity (DLT)” value ([5]; human, in vivo, 28 day) was “One DLT, a febrile neutropenia of grade 3”. For the same compound, the “maximum tolerable dose (MTD) / recommended dose for phase II” value ([5]; iv days 1, 8, 15 with gemcitabine 1000 mg/m2 iv and erlotinib 100 mg/day orally, 28-day cycle) was 250 mg/m^2.

For Nc1ccccc1NC(=O)c1ccc(CNc2nccc(-c3cccnc3)n2)cc1 [mocetinostat], the “clinical activity and toxicity” value [6] is listed as “showed only limited clinical activity”.

For O=C(c1cc(Cc2n[nH]c(=O)c3ccccc23)ccc1F)N1CCN(C(=O)C2CC2)CC1 [olaparib], the “median PFS” value ([7]; maintenance after ≥16 weeks of platinum-based therapy, gBRCA mutations, placebo 3.8) is listed as 7.4 months and the “HR for PFS vs. placebo” value ([7]; p=0.004) is listed as 0.53.

For Cc1[nH]c2ccccc2c1CCNCc1ccc(/C=C/C(=O)NO)cc1 [panovinostat], the study outcome [8] is listed as “suspended due to lack of response and toxicity”.

For CC(=O)Nc1ccc(C(=O)Nc2ccccc2N)cc1 [tacedinaline], the “clinical benefit vs gemcitabine alone” value [9] is listed as “no advantage over gemcitabine alone”.

For FOLFIRINOX, the “median progression-free survival (PFS)” value [10] is given as 6.4 months and the “overall survival (OS)” value [10] is given as 11.1 months.
